Experimental data as given in ChEMBL document CHEMBL4507289, “Data for DCP probe GSM1” (2021).

Columns and labels:
[1] = target: D(1B) dopamine receptor (Homo sapiens) (UniProt P21918); details: Compound concentration 10.0 uM
[2] = target: Serine/threonine-protein kinase Nek6 (Homo sapiens) (UniProt Q9HC98); details: Compound concentration 1000.0 nM
[3] = target: Dual specificity tyrosine-phosphorylation-regulated kinase 2 (Homo sapiens) (UniProt Q92630); details: Compound concentration 1000.0 nM
[4] = target: Casein kinase I isoform gamma-2 (Homo sapiens) (UniProt P78368); details: Compound concentration 1000.0 nM
[5] = target: Activin receptor type-2A (Homo sapiens) (UniProt P27037); details: Compound concentration 1000.0 nM
[6] = target: Mu-type opioid receptor (Homo sapiens) (UniProt P35372); details: Compound concentration 10.0 uM
Mu-type opioid receptor (Homo sapiens), sequence (P35372 whole entry): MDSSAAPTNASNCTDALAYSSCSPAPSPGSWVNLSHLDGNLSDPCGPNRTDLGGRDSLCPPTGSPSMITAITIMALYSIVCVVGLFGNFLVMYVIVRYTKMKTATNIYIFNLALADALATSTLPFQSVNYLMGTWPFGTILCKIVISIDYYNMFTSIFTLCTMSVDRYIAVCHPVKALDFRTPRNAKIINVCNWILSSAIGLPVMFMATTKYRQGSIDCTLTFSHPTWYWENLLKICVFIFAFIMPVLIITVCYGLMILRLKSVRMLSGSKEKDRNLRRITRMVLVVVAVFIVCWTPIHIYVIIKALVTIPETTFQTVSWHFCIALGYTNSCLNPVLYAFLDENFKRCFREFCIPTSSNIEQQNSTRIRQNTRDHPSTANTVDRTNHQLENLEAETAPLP

[7] = target: Mitogen-activated protein kinase kinase kinase kinase 2 (Homo sapiens) (UniProt Q12851); details: Compound concentration 1000.0 nM
[8] = target: Protein kinase C epsilon type (Homo sapiens) (UniProt Q02156); details: Compound concentration 1000.0 nM
[9] = target: Serine/threonine-protein kinase PAK 4 (Homo sapiens) (UniProt O96013); details: Compound concentration 1000.0 nM
[10] = target: Tyrosine-protein kinase receptor Tie-1 (Homo sapiens) (UniProt P35590); details: Compound concentration 1000.0 nM
[11] = system: Epidermal growth factor receptor (Homo sapiens), P00533 [L858R,T790M]; details: Compound concentration 1000.0 nM
[12] = target: Ribosomal protein S6 kinase alpha-1 (Homo sapiens) (UniProt Q15418); details: Compound concentration 1000.0 nM
[13] = target: Dual specificity mitogen-activated protein kinase kinase 7 (Homo sapiens) (UniProt O14733); details: Compound concentration 1000.0 nM
[14] = target: Ribosomal protein S6 kinase alpha-2 (Homo sapiens) (UniProt Q15349); details: Compound concentration 1000.0 nM
[15] = target: Aurora kinase B (Homo sapiens) (UniProt Q96GD4); details: Compound concentration 1000.0 nM
[16] = target: TGF-beta receptor type-1 (Homo sapiens) (UniProt P36897); details: Compound concentration 1000.0 nM
TGF-beta receptor type-1 (Homo sapiens), sequence (P36897 whole entry): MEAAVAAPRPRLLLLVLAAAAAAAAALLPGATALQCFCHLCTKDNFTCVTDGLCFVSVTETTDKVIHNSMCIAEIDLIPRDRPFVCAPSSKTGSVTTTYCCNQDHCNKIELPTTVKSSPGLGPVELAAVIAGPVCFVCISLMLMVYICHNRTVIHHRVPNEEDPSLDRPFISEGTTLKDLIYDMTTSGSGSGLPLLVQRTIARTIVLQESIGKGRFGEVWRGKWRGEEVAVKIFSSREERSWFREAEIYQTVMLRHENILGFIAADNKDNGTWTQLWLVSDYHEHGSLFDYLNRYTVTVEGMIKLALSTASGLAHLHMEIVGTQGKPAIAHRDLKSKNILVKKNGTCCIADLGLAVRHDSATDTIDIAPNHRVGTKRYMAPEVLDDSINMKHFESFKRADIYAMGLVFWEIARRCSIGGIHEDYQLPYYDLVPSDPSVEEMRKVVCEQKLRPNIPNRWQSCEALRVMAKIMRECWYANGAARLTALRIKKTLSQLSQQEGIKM

[17] = target: Calcium/calmodulin-dependent protein kinase type 1B (Homo sapiens) (UniProt Q6P2M8); details: Compound concentration 1000.0 nM
[18] = target: Myosin light chain kinase, smooth muscle (Homo sapiens) (UniProt Q15746); details: Compound concentration 1000.0 nM
[19] = system: Tyrosine-protein kinase ABL1 (Homo sapiens), P00519 [F317I]; details: Compound concentration 1000.0 nM
[20] = target: Interleukin-1 receptor-associated kinase 3 (Homo sapiens) (UniProt Q9Y616); details: Compound concentration 1000.0 nM
[21] = system: Epidermal growth factor receptor (Homo sapiens), P00533 [UNDEFINED MUTATION]; details: Compound concentration 1000.0 nM
[22] = target: Citron Rho-interacting kinase (Homo sapiens) (UniProt O14578); details: Compound concentration 1000.0 nM
[23] = target: Atypical kinase COQ8A, mitochondrial (Homo sapiens) (UniProt Q8NI60); details: Compound concentration 1000.0 nM
[24] = target: Serine/threonine-protein kinase TBK1 (Homo sapiens) (UniProt Q9UHD2); details: Compound concentration 1000.0 nM
[25] = target: Ribosomal protein S6 kinase alpha-4 (Homo sapiens) (UniProt O75676); details: Compound concentration 1000.0 nM
Ribosomal protein S6 kinase alpha-4 (Homo sapiens), sequence (O75676 whole entry, looked up): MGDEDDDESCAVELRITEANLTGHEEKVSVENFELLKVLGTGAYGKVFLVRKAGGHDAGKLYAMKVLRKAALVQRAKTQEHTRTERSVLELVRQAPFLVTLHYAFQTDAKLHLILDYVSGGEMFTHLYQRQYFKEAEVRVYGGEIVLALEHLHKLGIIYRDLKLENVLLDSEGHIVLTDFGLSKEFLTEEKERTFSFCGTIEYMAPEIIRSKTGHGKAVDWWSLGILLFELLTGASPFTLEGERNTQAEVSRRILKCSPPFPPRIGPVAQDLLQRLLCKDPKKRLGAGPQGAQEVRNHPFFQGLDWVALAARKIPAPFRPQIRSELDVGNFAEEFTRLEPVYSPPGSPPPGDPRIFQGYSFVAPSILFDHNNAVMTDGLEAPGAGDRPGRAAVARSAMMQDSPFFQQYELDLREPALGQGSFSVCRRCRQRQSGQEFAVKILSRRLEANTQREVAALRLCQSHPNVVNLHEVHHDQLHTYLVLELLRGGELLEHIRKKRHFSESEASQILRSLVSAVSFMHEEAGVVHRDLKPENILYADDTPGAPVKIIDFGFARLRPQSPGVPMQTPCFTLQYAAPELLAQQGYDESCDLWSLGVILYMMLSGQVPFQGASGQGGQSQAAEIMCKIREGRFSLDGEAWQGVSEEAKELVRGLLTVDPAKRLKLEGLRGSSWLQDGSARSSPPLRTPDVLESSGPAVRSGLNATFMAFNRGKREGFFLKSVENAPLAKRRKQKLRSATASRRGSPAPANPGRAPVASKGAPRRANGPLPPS

[26] = target: Serine/threonine-protein kinase N2 (Homo sapiens) (UniProt Q16513); details: Compound concentration 1000.0 nM
[27] = target: Muscle, skeletal receptor tyrosine-protein kinase (Homo sapiens) (UniProt O15146); details: Compound concentration 1000.0 nM
[28] = target: Serine/threonine-protein kinase WNK3 (Homo sapiens) (UniProt Q9BYP7); details: Compound concentration 1000.0 nM
[29] = target: Dual specificity mitogen-activated protein kinase kinase 2 (Homo sapiens) (UniProt P36507); details: Compound concentration 1000.0 nM
[30] = target: Myosin light chain kinase (Homo sapiens) (UniProt Q32MK0); details: Compound concentration 1000.0 nM
[31] = system: Receptor-type tyrosine-protein kinase FLT3 (Homo sapiens), P36888 [UNDEFINED MUTATION]; details: Compound concentration 1000.0 nM
Receptor-type tyrosine-protein kinase FLT3 (Homo sapiens), P36888 [UNDEFINED MUTATION], sequence (P36888 whole entry, looked up, stated change not applied): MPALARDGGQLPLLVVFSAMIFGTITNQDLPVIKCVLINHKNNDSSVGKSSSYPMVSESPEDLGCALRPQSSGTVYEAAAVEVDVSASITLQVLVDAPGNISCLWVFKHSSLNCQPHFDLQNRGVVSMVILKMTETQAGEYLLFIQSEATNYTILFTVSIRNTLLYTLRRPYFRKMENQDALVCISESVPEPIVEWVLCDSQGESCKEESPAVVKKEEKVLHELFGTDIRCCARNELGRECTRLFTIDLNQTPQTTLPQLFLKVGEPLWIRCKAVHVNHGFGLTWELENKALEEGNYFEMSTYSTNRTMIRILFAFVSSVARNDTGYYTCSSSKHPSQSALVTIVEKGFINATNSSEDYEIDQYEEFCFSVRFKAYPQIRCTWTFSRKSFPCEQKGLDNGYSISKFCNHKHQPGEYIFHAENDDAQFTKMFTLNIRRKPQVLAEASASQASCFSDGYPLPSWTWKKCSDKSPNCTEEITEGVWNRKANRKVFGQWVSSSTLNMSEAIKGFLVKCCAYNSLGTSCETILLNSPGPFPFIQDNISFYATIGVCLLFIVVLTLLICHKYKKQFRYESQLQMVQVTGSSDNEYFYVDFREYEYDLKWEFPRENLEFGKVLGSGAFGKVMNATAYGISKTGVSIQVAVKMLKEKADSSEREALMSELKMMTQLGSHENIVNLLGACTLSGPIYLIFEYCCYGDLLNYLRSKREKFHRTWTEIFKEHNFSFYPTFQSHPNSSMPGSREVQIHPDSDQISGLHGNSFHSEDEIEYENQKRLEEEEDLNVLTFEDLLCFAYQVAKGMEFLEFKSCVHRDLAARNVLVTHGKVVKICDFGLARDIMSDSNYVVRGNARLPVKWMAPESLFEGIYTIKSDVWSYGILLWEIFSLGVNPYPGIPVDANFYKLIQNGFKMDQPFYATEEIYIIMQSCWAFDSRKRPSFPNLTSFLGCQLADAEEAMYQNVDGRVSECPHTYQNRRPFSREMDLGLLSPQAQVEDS

[32] = system: Tyrosine-protein kinase ABL1 (Homo sapiens), P00519 [T315I]; details: Compound concentration 1000.0 nM
[33] = target: Tyrosine-protein kinase FRK (Homo sapiens) (UniProt P42685); details: Compound concentration 1000.0 nM
[34] = target: SRSF protein kinase 3 (Homo sapiens) (UniProt Q9UPE1); details: Compound concentration 1000.0 nM
[35] = target: Tyrosine-protein kinase BTK (Homo sapiens) (UniProt Q06187); details: Compound concentration 1000.0 nM
Tyrosine-protein kinase BTK (Homo sapiens), sequence (Q06187 whole entry, canonical isoform): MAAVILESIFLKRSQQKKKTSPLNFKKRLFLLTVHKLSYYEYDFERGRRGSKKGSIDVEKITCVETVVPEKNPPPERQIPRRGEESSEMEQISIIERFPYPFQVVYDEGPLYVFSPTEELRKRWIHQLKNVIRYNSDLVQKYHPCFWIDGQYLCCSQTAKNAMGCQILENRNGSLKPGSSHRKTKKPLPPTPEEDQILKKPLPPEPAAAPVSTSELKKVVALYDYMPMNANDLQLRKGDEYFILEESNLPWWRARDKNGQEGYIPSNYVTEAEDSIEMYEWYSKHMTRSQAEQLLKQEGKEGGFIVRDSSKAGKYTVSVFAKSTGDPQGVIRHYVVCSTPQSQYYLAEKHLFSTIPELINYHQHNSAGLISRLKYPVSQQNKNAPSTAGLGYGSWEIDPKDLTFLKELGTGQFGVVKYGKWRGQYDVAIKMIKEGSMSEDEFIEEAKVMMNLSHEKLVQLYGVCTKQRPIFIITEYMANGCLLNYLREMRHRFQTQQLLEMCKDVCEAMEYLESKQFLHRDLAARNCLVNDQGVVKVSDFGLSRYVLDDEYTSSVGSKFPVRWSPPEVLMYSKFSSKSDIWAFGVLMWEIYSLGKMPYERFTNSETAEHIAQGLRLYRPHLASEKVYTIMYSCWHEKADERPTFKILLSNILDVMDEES

[36] = system: Phosphatidylinositol 4,5-bisphosphate 3-kinase catalytic subunit alpha isoform (Homo sapiens), P42336 [I800L]; details: Compound concentration 1000.0 nM
[37] = target: 5-hydroxytryptamine receptor 7 (Homo sapiens) (UniProt P34969); details: Compound concentration 10.0 uM
[38] = target: Macrophage-stimulating protein receptor (Homo sapiens) (UniProt Q04912); details: Compound concentration 1000.0 nM
[39] = target: Serine/threonine-protein kinase TNNI3K (Homo sapiens) (UniProt Q59H18); details: Compound concentration 1000.0 nM
[40] = target: MAP/microtubule affinity-regulating kinase 3 (Homo sapiens) (UniProt P27448); details: Compound concentration 1000.0 nM
[41] = target: Transient receptor potential cation channel subfamily M member 6 (Homo sapiens) (UniProt Q9BX84); details: Compound concentration 1000.0 nM
[42] = target: Mitogen-activated protein kinase kinase kinase kinase 1 (Homo sapiens) (UniProt Q92918); details: Compound concentration 1000.0 nM
[43] = target: Beta-adrenergic receptor kinase 1 (Homo sapiens) (UniProt P25098); details: Compound concentration 1000.0 nM
[44] = target: Dual specificity protein kinase CLK3 (Homo sapiens) (UniProt P49761); details: Compound concentration 1000.0 nM
Dual specificity protein kinase CLK3 (Homo sapiens), sequence (P49761 whole entry, looked up): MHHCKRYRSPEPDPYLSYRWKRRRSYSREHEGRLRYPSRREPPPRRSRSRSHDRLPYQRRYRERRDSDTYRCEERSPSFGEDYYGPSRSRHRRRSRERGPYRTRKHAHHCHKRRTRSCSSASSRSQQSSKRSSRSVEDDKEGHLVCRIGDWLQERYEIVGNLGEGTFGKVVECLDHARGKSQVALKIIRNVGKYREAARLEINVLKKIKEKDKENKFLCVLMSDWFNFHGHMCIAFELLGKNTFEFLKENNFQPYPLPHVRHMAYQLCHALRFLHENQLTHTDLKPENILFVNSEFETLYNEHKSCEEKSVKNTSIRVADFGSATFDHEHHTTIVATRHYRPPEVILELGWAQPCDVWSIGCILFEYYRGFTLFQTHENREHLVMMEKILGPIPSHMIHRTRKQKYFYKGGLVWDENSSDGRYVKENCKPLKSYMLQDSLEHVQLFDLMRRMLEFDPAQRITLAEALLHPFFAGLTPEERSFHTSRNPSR

[45] = target: Receptor-type tyrosine-protein kinase FLT3 (Homo sapiens) (UniProt P36888); details: Compound concentration 1000.0 nM
Receptor-type tyrosine-protein kinase FLT3 (Homo sapiens), sequence (P36888 whole entry): as the sequence (P36888 whole entry, looked up, stated change not applied) above

SMILES: COc1cc(-c2cn([C@H]3CCc4ccccc4N(CC(F)(F)F)C3=O)nn2)ccc1-n1ccc(C)n1
- inhibition [1]: 20.1%
- residual activity [2]: 100%
- residual activity [3]: 94%
- residual activity [4]: 100%
- residual activity [5]: 100%
- inhibition [6]: 5.55%
- residual activity [7]: 80%
- residual activity [8]: 100%
- residual activity [9]: 100%
- residual activity [10]: 100%
- residual activity [11]: 65%
- residual activity [12]: 95%
- residual activity [13]: 100%
- residual activity [14]: 100%
- residual activity [15]: 89%
- residual activity [16]: 100%
- residual activity [17]: 100%
- residual activity [18]: 80%
- residual activity [19]: 65%
- residual activity [20]: 91%
- residual activity [21]: 100%
- residual activity [22]: 100%
- residual activity [23]: 100%
- residual activity [24]: 88%
- residual activity [25]: 78%
- residual activity [26]: 98%
- residual activity [27]: 99%
- residual activity [28]: 100%
- residual activity [29]: 98%
- residual activity [30]: 100%
- residual activity [31]: 99%
- residual activity [32]: 77%
- residual activity [33]: 100%
- residual activity [34]: 100%
- residual activity [35]: 82%
- residual activity [36]: 76%
- inhibition [37]: 5.84%
- residual activity [38]: 96%
- residual activity [39]: 100%
- residual activity [40]: 100%
- residual activity [41]: 100%
- residual activity [42]: 100%
- residual activity [43]: 87%
- residual activity [44]: 95%
- residual activity [45]: 85%

SMILES: COc1cc(-c2cn([C@H]3CCc4c(F)cccc4N(CC(F)(F)F)C3=O)nn2)ccc1-n1cnc(C)c1
- inhibition [1]: -8.33%
- residual activity [2]: 100%
- residual activity [3]: 100%
- residual activity [4]: 100%
- residual activity [5]: 0%
- inhibition [6]: 30.2%
- residual activity [7]: 100%
- residual activity [8]: 100%
- residual activity [9]: 99%
- residual activity [10]: 100%
- residual activity [11]: 82%
- residual activity [12]: 100%
- residual activity [13]: 100%
- residual activity [14]: 100%
- residual activity [15]: 100%
- residual activity [16]: 100%
- residual activity [17]: 100%
- residual activity [18]: 81%
- residual activity [19]: 79%
- residual activity [20]: 100%
- residual activity [21]: 98%
- residual activity [22]: 100%
- residual activity [23]: 100%
- residual activity [24]: 100%
- residual activity [25]: 100%
- residual activity [26]: 100%
- residual activity [27]: 100%
- residual activity [28]: 100%
- residual activity [29]: 100%
- residual activity [30]: 92%
- residual activity [31]: 100%
- residual activity [32]: 85%
- residual activity [33]: 100%
- residual activity [34]: 100%
- residual activity [35]: 100%
- residual activity [36]: 66%
- inhibition [37]: 26.8%
- residual activity [38]: 100%
- residual activity [39]: 100%
- residual activity [40]: 100%
- residual activity [41]: 100%
- residual activity [42]: 100%
- residual activity [43]: 100%
- residual activity [44]: 83%
- residual activity [45]: 89%
